pEC50: −log10 of the molar value. The source made the active and inactive calls. The rule behind the calls is not given here.
System: Jurkat
Assay: Inhibition of TNF-alpha-induced necroptosis in FADD-deficient Jurkat T cells
Assay type: functional, cell-based
Design: concentration or dose not given beside the values
Conditions: for pEC50: Jurkat

With CSc1nc2sc3c(c2c(=O)n1-c1ccc(C)c(C)c1)CC(C)CC3 (configuration not stated) as the molecule, how does the Activity (Homo sapiens) read?
Its Activity is “inactive”.

Which Activity (Homo sapiens) does the source give for CCCCCSc1nc2sc3c(c2c(=O)n1-c1ccc(OC)cc1)CCC3 here?
Its Activity is “inactive”.

With COc1ccc(-n2c(SCC#N)nc3sc4c(c3c2=O)CCC4)cc1OC as the molecule, how does the Activity (Homo sapiens) read?
Its Activity is “inactive”.

For N#CCSc1nc2sc3c(c2c(=O)n1-c1ccc2c(c1)OCO2)CCC3, which Activity is on record?
Its Activity is 100%.

And the pEC50 (Homo sapiens)?
Its pEC50 is 5.93.

For CCc1c(C)sc2nc(SC)n(-c3ccc(OC)cc3)c(=O)c12, which Activity (Homo sapiens) is on record?
Its Activity is “inactive”.

With CCCCCCCCCCCCCCc1sc2nc(SC)n(-c3ccc(OC)cc3)c(=O)c2c1C as the molecule, how does the Activity (Homo sapiens) read?
The Activity was “inactive”.

Which Activity (Homo sapiens) does the source give for C=CCSc1nc2sc3c(c2c(=O)n1-c1ccc(OC)cc1)CCC3 here?
Its Activity is “inactive”.

How did the Activity (Homo sapiens) turn out when CCCc1sc2nc(SCCO)n(-c3ccc(OC)cc3)c(=O)c2c1C was run?
The Activity was “inactive”.

For COc1ccc(-n2c(SCC#N)nc3sc4c(c3c2=O)CC(C)CC4)cc1OC (configuration not stated), which Activity (Homo sapiens) is on record?
Its Activity is “inactive”.

For CSc1nc2sc(C)c(C)c2c(=O)n1-c1ccc(F)cc1, which Activity is on record?
Its Activity is 69.2%.

And the pEC50 (Homo sapiens)?
The pEC50 was 5.59.

How did the Activity (Homo sapiens) turn out when COc1ccc(-n2c(SC)nc3sccc3c2=O)cc1 was run?
Its Activity is “inactive”.

Which Activity (Homo sapiens) does the source give for COc1ccc(-n2c(SC)nc3scc(C)c3c2=O)cc1 here?
Its Activity is “inactive”.

CSc1nc2sc3c(c2c(=O)n1-c1ccc(Cl)c(Cl)c1)CCCC3 was tested. Which Activity (Homo sapiens) did it give?
The Activity was “inactive”.

For COc1ccc(-n2c(SCC#N)nc3sc4c(c3c2=O)CC(C)CC4)cc1 (configuration not stated), which Activity (Homo sapiens) is on record?
The Activity was “inactive”.

CSc1nc2sc3c(c2c(=O)n1-c1ccc2c(c1)OCO2)CCC3 was tested. Which Activity (Homo sapiens) did it give?
The Activity was “inactive”.

Which results are given for CSc1nc2sc3c(c2c(=O)n1-c1ccc(F)cc1)CCCC3?
Activity: 61.2%; pEC50 (Homo sapiens): 5.80

How did the Activity (Homo sapiens) turn out when COc1ccc(-n2c(SC[N+](=O)[O-])nc3sc4c(c3c2=O)CCCC4)cc1 was run?
The Activity was “inactive”.

How did the Activity (Homo sapiens) turn out when N#CCSc1nc2sc3c(c2c(=O)n1-c1ccc(F)c(F)c1)CCCC3 was run?
Its Activity is “inactive”.

Which Activity (Homo sapiens) does the source give for CSc1nc2sc(C)c(C)c2c(=O)n1-c1ccc(OCc2ccccc2)cc1 here?
Its Activity is “inactive”.

How did the Activity (Homo sapiens) turn out when C#CCSc1nc2sccc2c(=O)n1-c1ccc(OC)cc1 was run?
The Activity was “inactive”.

How did the Activity (Homo sapiens) turn out when COc1ccc(-n2c(SC)nc3sc4c(c3c2=O)CCCCC4)cc1 was run?
The Activity was “inactive”.

COc1ccc(-n2c(SC)nc3sc(C(C)C)c(C)c3c2=O)cc1 was tested. Which Activity (Homo sapiens) did it give?
The Activity was “inactive”.

For CCSc1nc2sc3c(c2c(=O)n1-c1ccc(OC)cc1)CCCCC3, which Activity (Homo sapiens) is on record?
The Activity was “inactive”.

With CSc1nc2sc3c(c2c(=O)n1-c1ccc(C)c(C)c1)CCCC3 as the molecule, how does the Activity read?
The Activity was 38%.

What about the pEC50 (Homo sapiens) of the same molecule?
Its pEC50 is 4.78.

How did the Activity (Homo sapiens) turn out when COc1ccc(-n2c(SCc3ccc([N+](=O)[O-])cc3)nc3sc4c(c3c2=O)CCC4)cc1 was run?
Its Activity is “inactive”.

What does the source list for COc1ccc(-n2c(SCC#N)nc3sc4c(c3c2=O)CCCC4)cc1OC?
Activity: 57%; pEC50 (Homo sapiens): 5.24

CCOc1ccc(-n2c(SC)nc3sc4c(c3c2=O)CCC4)cc1 was tested. Which Activity (Homo sapiens) did it give?
Its Activity is “inactive”.

How did the Activity turn out when COc1ccc(-n2c(SCCC#N)nc3sc4c(c3c2=O)CCCC4)cc1 was run?
The Activity was 70%.

What about the pEC50 (Homo sapiens) of the same molecule?
The pEC50 was 5.28.

Cc1ccccc1-n1c(SCC#N)nc2sc3c(c2c1=O)CCCC3 was tested. Which Activity (Homo sapiens) did it give?
The Activity was “inactive”.

Which Activity (Homo sapiens) does the source give for COc1ccc(-n2c(SCC(=O)O)nc3sc4c(c3c2=O)CCCC4)cc1 here?
Its Activity is “inactive”.

COc1ccc(-n2c(SCCC#N)nc3sc(C)c(C)c3c2=O)cc1 was tested. Which Activity (Homo sapiens) did it give?
The Activity was “inactive”.

For N#CCSc1nc2sc3ccccc3c2c(=O)n1-c1ccc2c(c1)OCO2, which Activity is on record?
Its Activity is 100%.

What about the pEC50 (Homo sapiens) of the same molecule?
Its pEC50 is 6.57.

C#CCSc1nc2sc3c(c2c(=O)n1-c1ccc(OC)cc1)CCCCC3 was tested. Which Activity (Homo sapiens) did it give?
The Activity was “inactive”.

CCc1sc2nc(SCCO)n(-c3ccc(OC)cc3)c(=O)c2c1C was tested. Which Activity (Homo sapiens) did it give?
Its Activity is “inactive”.

CSc1nc2sc3c(c2c(=O)n1-c1ccc(OC(F)(F)F)cc1)CCCC3 was tested. Which Activity (Homo sapiens) did it give?
Its Activity is “inactive”.

For CCOc1ccc(-n2c(SCC#N)nc3sc(C)c(C)c3c2=O)cc1, which Activity is on record?
The Activity was 97%.

And the pEC50 (Homo sapiens)?
The pEC50 was 5.11.

With CSc1nc2sc3c(c2c(=O)n1-c1ccc(OC(F)(F)F)cc1)CCC3 as the molecule, how does the Activity (Homo sapiens) read?
Its Activity is “inactive”.

For CSc1cccc(-n2c(SC)nc3sc4c(c3c2=O)CCCC4)c1, which Activity (Homo sapiens) is on record?
The Activity was “inactive”.

N#CCSc1nc2sc3c(c2c(=O)n1-c1ccc(F)cc1)CCCCC3 was tested. Which Activity (Homo sapiens) did it give?
Its Activity is “inactive”.

For CSc1nc2sc3c(c2c(=O)n1-c1ccc(F)cc1)CCCCC3, which Activity (Homo sapiens) is on record?
Its Activity is “inactive”.

With N#CCSc1nc2sc3ccccc3c2c(=O)n1-c1ccc(OC(F)(F)F)cc1 as the molecule, how does the Activity (Homo sapiens) read?
Its Activity is “inactive”.

C#CCSc1nc2scc(C)c2c(=O)n1-c1ccc(OC)cc1 was tested. Which Activity (Homo sapiens) did it give?
The Activity was “inactive”.

Which results are given for CCOc1ccc(-n2c(SCC#N)nc3sc4c(c3c2=O)CCCC4)cc1?
Activity: 83.8%; pEC50 (Homo sapiens): 6.26

With COc1ccc(-n2c(SCCO)nc3sc4c(c3c2=O)CCC4)cc1 as the molecule, how does the Activity read?
The Activity was 100%.

And the pEC50 (Homo sapiens)?
The pEC50 was 5.15.

Which Activity does the source give for CCc1c(C)sc2nc(SCC#N)n(-c3ccc4c(c3)OCO4)c(=O)c12 here?
The Activity was 100%.

What about the pEC50 (Homo sapiens) of the same molecule?
Its pEC50 is 5.72.

With COc1ccc(-n2c(SC)nc3sc4c(c3c2=O)CC(C)CC4)cc1 (configuration not stated) as the molecule, how does the Activity (Homo sapiens) read?
Its Activity is “inactive”.

What does the source list for N#CCSc1nc2sc3ccccc3c2c(=O)n1-c1ccc2c(c1)OCCO2?
Activity: 100%; pEC50 (Homo sapiens): 6.82

N#CCSc1nc2sc3c(c2c(=O)n1-c1ccccc1)CCC3 was tested. Which Activity (Homo sapiens) did it give?
Its Activity is “inactive”.

With CCc1sc2nc(SCC#N)n(-c3ccc(OC)cc3)c(=O)c2c1C as the molecule, how does the Activity read?
The Activity was 86.8%.

And the pEC50 (Homo sapiens)?
The pEC50 was 5.28.

Which Activity does the source give for Cc1sc2nc(SCC#N)n(-c3ccc4c(c3)OCCO4)c(=O)c2c1C here?
Its Activity is 100%.

What about the pEC50 (Homo sapiens) of the same molecule?
Its pEC50 is 6.60.

For COc1ccc(-n2c(SCC(C)=O)nc3sc4c(c3c2=O)CCCC4)cc1, which Activity (Homo sapiens) is on record?
The Activity was “inactive”.

With CCc1sc2nc(SCC#N)n(-c3ccc(F)cc3)c(=O)c2c1C as the molecule, how does the Activity (Homo sapiens) read?
Its Activity is “inactive”.

How did the Activity (Homo sapiens) turn out when COc1ccc(-n2c(SCC#N)nc3scc(C)c3c2=O)cc1 was run?
The Activity was “inactive”.

How did the Activity turn out when COc1ccc(-n2c(SCC#N)nc3sc4c(c3c2=O)CCC4)cc1 was run?
The Activity was 100%.

What about the pEC50 (Homo sapiens) of the same molecule?
Its pEC50 is 6.35.

How did the Activity turn out when COc1ccc(-n2c(SCC#N)nc3sc(C)c(C)c3c2=O)cc1 was run?
Its Activity is 100%.

And the pEC50 (Homo sapiens)?
Its pEC50 is 6.35.

How did the Activity (Homo sapiens) turn out when COc1ccc(-n2c(SC)nc3sc(C)c(C)c3c2=O)cc1 was run?
The Activity was “inactive”.

N#CCSc1nc2sc3ccccc3c2c(=O)n1-c1ccc(F)cc1 was tested. Which pEC50 (Homo sapiens) did it give?
The pEC50 was 5.51.

Which Activity (Homo sapiens) does the source give for COc1ccc(-n2c(SC)nc3sc4c(c3c2=O)CC(C)CC4)cc1OC (configuration not stated) here?
Its Activity is “inactive”.

N#CCSc1nc2sc3c(c2c(=O)n1-c1ccc2c(c1)OCCO2)CCCC3 was tested. Which Activity did it give?
Its Activity is 100%.

What about the pEC50 (Homo sapiens) of the same molecule?
The pEC50 was 6.66.

Which results are given for CSc1nc2sc3c(c2c(=O)n1-c1ccc(F)cc1)CCC3?
Activity: 95%; pEC50 (Homo sapiens): 5.52

Which results are given for COc1ccc(-n2c(SC)nc3sc4ccccc4c3c2=O)cc1?
Activity: 77%; pEC50 (Homo sapiens): 6.62

For CCCCSc1nc2sc3c(c2c(=O)n1-c1ccc(OC)cc1)CCC3, which Activity (Homo sapiens) is on record?
Its Activity is “inactive”.

CCN1CCc2sc3nc(SC)n(-c4ccc(OC)cc4)c(=O)c3c2C1 was tested. Which Activity (Homo sapiens) did it give?
The Activity was “inactive”.

Which Activity (Homo sapiens) does the source give for CSc1nc2sc3c(c2c(=O)n1-c1ccc(Br)cc1)CCCC3 here?
The Activity was “inactive”.

Which Activity (Homo sapiens) does the source give for Cc1cc(Cl)ccc1-n1c(SCC#N)nc2sc3c(c2c1=O)CCCC3 here?
The Activity was “inactive”.

For COc1ccc(-n2c(SC)nc3sc4c(c3c2=O)CCC4)cc1, which Activity is on record?
The Activity was 97%.

What about the pEC50 (Homo sapiens) of the same molecule?
Its pEC50 is 6.62.

What does the source list for COc1ccc(-n2c(SC)nc3sc4c(c3c2=O)CCCC4)cc1?
Activity: 71%; pEC50 (Homo sapiens): 6.62

N#CCSc1nc2sccc2c(=O)n1-c1ccccc1 was tested. Which Activity (Homo sapiens) did it give?
Its Activity is “inactive”.

How did the Activity (Homo sapiens) turn out when CCCSc1nc2sc3c(c2c(=O)n1-c1ccc(OC)cc1)CCCC3 was run?
The Activity was “inactive”.

For CSc1nc2sc(C)c(C)c2c(=O)n1-c1ccc(C)c(C)c1, which Activity (Homo sapiens) is on record?
Its Activity is “inactive”.

For N#CCSc1nc2sc3c(c2c(=O)n1-c1ccc(Cl)cc1)CCCC3, which Activity is on record?
The Activity was 55%.

And the pEC50 (Homo sapiens)?
The pEC50 was 5.07.

How did the Activity (Homo sapiens) turn out when CCSc1nc2sc3c(c2c(=O)n1-c1ccccc1)CCCCC3 was run?
Its Activity is “inactive”.

With COc1ccc(-n2c(SC[N+](=O)[O-])nc3sc4c(c3c2=O)CCC4)cc1 as the molecule, how does the Activity (Homo sapiens) read?
The Activity was “inactive”.

With COc1cccc(-n2c(SCC#N)nc3sc4c(c3c2=O)CCCC4)c1 as the molecule, how does the Activity read?
Its Activity is 87.7%.

What about the pEC50 (Homo sapiens) of the same molecule?
The pEC50 was 5.84.

For COc1ccc(-n2c(SCC#N)nc3c(c2=O)C2CCCCCC2S3)cc1 (configuration not stated), which Activity is on record?
The Activity was 83%.

And the pEC50 (Homo sapiens)?
Its pEC50 is 6.02.

Which results are given for COc1ccc(-n2c(SC)nc3sc4c(c3c2=O)CCCC4)cc1OC?
Activity: 54.5%; pEC50 (Homo sapiens): 4.78

Which Activity (Homo sapiens) does the source give for C#CCSc1nc2sc(CCC)c(C)c2c(=O)n1-c1ccc(OC)cc1 here?
The Activity was “inactive”.

From ChEMBL document CHEMBL1139128, “Structure-activity relationship analysis of a novel necroptosis inhibitor, Necrostatin-5” (Bioorg Med Chem Lett, 2007)
